Reference: patent US7541367B2, “3-benzoimidazolyl-pyrazolopyridines useful in treating kinase disorders” (Janssen Pharmaceutica, N.V., priority 2005, dated 2009)
pIC50: −log10 of the molar value.

Key:
[1] = target: T1, CDK1 (Homo sapiens, UniProt P06493); assay: CDK-1 kinase screening assay (33P-ATP FlashPlate); type: biochemical; settings: human CDK1 with cyclin B; 10 μM ATP; 1 hr at 30° C
T1 construct: purchased New England Biolabs, Beverly, Mass; 6020; host or cells: insect cells
Protocol: A kinase reaction mixture was prepared containing 50 mM Tris-HCl pH=8, 10 mM MgCl2, 0.1 mM […], 1 mM DTT, 10 μM ATP, 0.025 μM biotinylated histone-H1 peptide substrate and 0.2 μCuries per well ^33P-γ-ATP (2000-3000 Ci/mmol). 70 μL of the kinase reaction mixture was dispensed into the well of a streptavidin coated FlashPlate™ (Cat. # SMP103, NEN, Boston, Mass.).
Test compound stock in 100% DMSO (1 μL) was added to the wells resulting in a final concentration of 1% DMSO in the reaction with a 100 μL final reaction volume. Each enzyme was diluted in 50 mM Tris-HCl pH=8.0, 0.11% BSA and 30 μL was added to each well to initiate the reaction. The reaction was incubated for one hour at 30° C. At the end of the 1 hr incubation, the reaction was terminated by aspirating the mixture from the plate and washing the wells twice with PBS containing 100 mM EDTA. The biotinylated peptide substrate became immobilized on the Flashplate™ and the incorporation of ^33P-γ-ATP was measured by reading the plate on a scintillation counter. Inhibition of the enzymatic activity was measured by observing a reduced amount of ^33P-γ-ATP incorporated into the immobilized peptide.
The CDK1 enzyme was isolated from insect cells expressing both the human CDK1 catalytic subunit (Accession number NM_001786) and its positive regulatory subunit cyclin B (New England Biolabs, Beverly, Mass.; Cat. # 6020). The assay used 30 ng of the N-terminal biotinylated peptide biotin-[…]-amide (Cyclin dependent kinase 1) per well.
A maximum and minimum signal for the assay was determined on each plate. The percent inhibition of a test compound was calculated according to the formula: […]
For a series of test concentrations, the IC50 was derived by graphing percent inhibition against the log of the concentrations tested for a given compound with results shown in Table 1.
For compounds with multiple values, each value represents a separate assay result.

[2] = tested on: HeLa cervical adenocarcinoma; assay: Cell Proliferation Inhibition Assay (14C-thymidine incorporation), HeLa; type: cell-based; settings: Homo sapiens, HeLa cells;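 further: test compound in DMSO added to cells seeded in scintillating 96-well plates, DMSO-only wells as control, uptake of methyl 14C-thymidine into new DNA counted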
[3] = tested on: HCT-116 colon carcinoma; assay: Cell Proliferation Inhibition Assay (14C-thymidine incorporation), HCT-116; type: cell-based; settings: Homo sapiens;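 further: proliferation measured as methyl 14C-thymidine uptake into new DNA, counted in 96-well scintillating microplates, compared with DMSO-only control wells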
[4] = target: T2, Aurora-A (Mus musculus, UniProt P97477); assay: Aurora-A kinase screening assay (33P-ATP FlashPlate); type: biochemical; settings: 10 μM ATP, 1 hr at 30° C;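 further: His-tagged mouse Aurora-A phosphorylating a biotinylated peptide captured on streptavidin plates, read as 33P uptake by scintillation counting, 1% DMSO, inhibition scaled between per-plate maximum and minimum signals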
T2 construct: polyhistidine (N)
T2 sequence (P97477 1-395): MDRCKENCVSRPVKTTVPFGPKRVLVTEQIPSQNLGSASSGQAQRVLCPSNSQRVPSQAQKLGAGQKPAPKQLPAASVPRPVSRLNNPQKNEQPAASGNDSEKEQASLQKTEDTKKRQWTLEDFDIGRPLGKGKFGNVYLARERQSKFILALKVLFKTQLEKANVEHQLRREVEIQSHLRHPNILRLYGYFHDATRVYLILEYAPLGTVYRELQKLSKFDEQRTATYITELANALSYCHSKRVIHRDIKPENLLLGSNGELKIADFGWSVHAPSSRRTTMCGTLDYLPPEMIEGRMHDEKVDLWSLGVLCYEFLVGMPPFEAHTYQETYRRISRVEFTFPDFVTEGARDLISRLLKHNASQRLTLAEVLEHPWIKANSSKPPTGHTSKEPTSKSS

[5] = target: T3, VEGF-R2 (Rattus norvegicus, UniProt O08775); assay: VEGF-R2 kinase screening assay (33P-ATP FlashPlate); type: biochemical; settings: rat VEGF-R2 kinase domain; 10 μM ATP; 1 hr at 30° C;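 further: Read-out is ³³P incorporation from ³³P-γ-ATP into biotinylated peptide substrate captured on streptavidin FlashPlate, counted by scintillation, 1% DMSO final, inhibition scaled between per-plate maximum and minimum signals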
T3 construct: polyhistidine (N)

[6] = target: T4, RET (Homo sapiens, UniProt P07949); assay: RET kinase screening assay (33P-ATP FlashPlate); type: biochemical; settings: human RET kinase domain; 10 μM ATP; 1 hr at 30° C;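 further: biotinylated peptide substrate captured on streptavidin FlashPlate, 33P phosphate transfer read by scintillation counting, 1% DMSO, lower incorporation means inhibition, percent relative to per-plate maximum and minimum signals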
T4 construct: polyhistidine (N)
T4 sequence (P07949 658-1114 limits assumed): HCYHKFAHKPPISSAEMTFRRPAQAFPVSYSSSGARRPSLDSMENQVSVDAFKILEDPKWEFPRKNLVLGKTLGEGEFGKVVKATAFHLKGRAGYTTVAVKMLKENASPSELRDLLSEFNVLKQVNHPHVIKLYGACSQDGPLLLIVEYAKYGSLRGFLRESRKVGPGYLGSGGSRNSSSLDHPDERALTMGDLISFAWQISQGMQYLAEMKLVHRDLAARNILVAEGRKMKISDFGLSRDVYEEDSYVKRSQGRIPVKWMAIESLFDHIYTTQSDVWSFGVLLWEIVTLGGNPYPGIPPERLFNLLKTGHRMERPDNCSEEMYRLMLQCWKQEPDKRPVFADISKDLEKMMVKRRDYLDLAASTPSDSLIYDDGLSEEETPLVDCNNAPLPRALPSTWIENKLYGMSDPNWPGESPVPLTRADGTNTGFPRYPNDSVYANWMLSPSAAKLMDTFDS

[7] = target: T5, HER2 (Homo sapiens, UniProt P04626); assay: HER2 kinase screening assay (33P-ATP FlashPlate); type: biochemical; settings: GST-HIS6 HER-2 aa 679 to 1255; 10 μM ATP; 1 hr at 30° C;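 further: Biotin-poly(GT) 4:1 peptide captured on streptavidin FlashPlate, 33P transfer from γ-ATP read by scintillation counting, lower incorporation means inhibition, 1% DMSO final, 100 µL reaction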
T5 construct: GST (Glutathione-S-Transferase) (N); HIS6 (N); thrombin cleavage site (N); purchased Proqinase, Freiburg, Germany

[8] = tested on: A375 malignant melanoma; assay: Cell Proliferation Inhibition Assay (14C-thymidine incorporation), A375; type: cell-based; settings: Homo sapiens, A-375, A375 cells;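 further: proliferation measured by radiolabelled thymidine uptake into new DNA, counted in scintillating 96-well plates, compound-treated wells compared with DMSO-only control wells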

T3 sequence (O08775 786-1343): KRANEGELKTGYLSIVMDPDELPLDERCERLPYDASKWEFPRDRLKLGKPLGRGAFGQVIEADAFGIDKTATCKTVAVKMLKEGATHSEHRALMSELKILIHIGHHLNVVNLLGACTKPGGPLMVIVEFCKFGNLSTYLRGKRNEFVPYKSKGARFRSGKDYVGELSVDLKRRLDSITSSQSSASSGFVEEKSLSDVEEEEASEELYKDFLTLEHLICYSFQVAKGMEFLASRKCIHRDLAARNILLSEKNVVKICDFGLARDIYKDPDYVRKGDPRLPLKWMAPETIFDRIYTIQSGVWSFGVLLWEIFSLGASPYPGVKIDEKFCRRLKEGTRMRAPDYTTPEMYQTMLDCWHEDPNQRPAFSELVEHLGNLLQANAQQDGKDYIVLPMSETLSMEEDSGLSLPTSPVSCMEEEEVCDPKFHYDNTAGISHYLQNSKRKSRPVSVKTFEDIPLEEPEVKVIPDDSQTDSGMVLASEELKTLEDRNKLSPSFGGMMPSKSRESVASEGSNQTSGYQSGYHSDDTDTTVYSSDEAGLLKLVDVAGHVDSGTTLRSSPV
T1 sequence (P06493 whole entry): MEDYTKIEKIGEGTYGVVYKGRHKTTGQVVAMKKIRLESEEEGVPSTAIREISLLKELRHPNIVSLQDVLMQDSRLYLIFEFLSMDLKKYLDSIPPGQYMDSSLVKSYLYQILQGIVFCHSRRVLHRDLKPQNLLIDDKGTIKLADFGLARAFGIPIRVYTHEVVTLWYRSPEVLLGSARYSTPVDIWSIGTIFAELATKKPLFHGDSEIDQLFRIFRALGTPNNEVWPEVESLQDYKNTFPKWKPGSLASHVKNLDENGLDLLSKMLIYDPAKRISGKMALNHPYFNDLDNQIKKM
T1 sequence (P14635 whole entry partner): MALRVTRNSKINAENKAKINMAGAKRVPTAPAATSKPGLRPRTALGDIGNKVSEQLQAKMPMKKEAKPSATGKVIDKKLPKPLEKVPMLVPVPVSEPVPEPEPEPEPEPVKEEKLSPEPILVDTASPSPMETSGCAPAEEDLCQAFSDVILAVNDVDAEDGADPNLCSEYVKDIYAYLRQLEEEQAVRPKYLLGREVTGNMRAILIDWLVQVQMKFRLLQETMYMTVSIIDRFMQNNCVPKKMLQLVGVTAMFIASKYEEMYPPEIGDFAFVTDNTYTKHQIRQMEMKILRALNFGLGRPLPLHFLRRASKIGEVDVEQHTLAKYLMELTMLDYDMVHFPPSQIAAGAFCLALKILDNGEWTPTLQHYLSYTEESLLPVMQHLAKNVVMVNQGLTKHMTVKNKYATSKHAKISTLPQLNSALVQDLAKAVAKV
T5 sequence (P04626 679-1255): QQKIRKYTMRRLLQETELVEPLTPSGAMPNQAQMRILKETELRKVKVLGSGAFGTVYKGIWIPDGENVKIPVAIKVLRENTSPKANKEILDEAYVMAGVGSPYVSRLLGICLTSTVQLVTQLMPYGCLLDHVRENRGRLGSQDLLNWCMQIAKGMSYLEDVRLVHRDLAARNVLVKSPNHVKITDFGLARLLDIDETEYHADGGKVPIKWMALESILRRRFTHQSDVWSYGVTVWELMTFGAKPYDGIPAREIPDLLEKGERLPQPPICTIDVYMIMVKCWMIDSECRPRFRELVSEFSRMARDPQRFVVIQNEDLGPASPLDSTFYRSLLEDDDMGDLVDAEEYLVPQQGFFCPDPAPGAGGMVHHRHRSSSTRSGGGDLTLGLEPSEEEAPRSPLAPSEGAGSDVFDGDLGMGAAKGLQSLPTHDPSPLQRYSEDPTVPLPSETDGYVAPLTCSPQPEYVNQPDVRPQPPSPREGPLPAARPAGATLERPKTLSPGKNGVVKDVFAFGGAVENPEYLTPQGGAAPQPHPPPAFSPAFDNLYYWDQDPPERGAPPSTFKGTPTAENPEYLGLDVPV

OCc1cccc2[nH]c(-c3n[nH]c4ncc(-c5cncc6ccccc56)cc34)nc12 [Cpd 3, [2-(5-isoquinolin-4-yl-1H-pyrazolo[3,4-b]pyridin-3-yl)-1H-benzoimidazol-4-yl]-methanol]
pIC50 [1]: 7.38
pIC50 ([2]; HeLa): 5.76
pIC50 ([3]; HCT-116, HCT-116 cells): 6.05
pIC50 [4]: < 5.00
pIC50 [5]: < 4.00
pIC50 [6]: < 4.00
pIC50 [7]: 6.61

c1ccc2c(-c3cnc4[nH]nc(-c5nc6c(CN7CCCC7)cccc6[nH]5)c4c3)cncc2c1 [Cpd 7, 4-[3-(4-pyrrolidin-1-ylmethyl-1H-benzoimidazol-2-yl)-1H-pyrazolo[3,4-b]pyridin-5-yl]-isoquinoline]
pIC50 [1]: 8.31
pIC50 ([2]; HeLa): 6.95
pIC50 ([3]; HCT-116, HCT-116 cells): 7.19
pIC50 [8]: 7.08
pIC50 [4]: 5.76
pIC50 [5]: 5.80
pIC50 [6]: < 5.00

c1ccc2c(-c3cnc4[nH]nc(-c5nc6c(CN7CCCCC7)cccc6[nH]5)c4c3)cncc2c1 [Cpd 8, 4-[3-(4-piperidin-1-ylmethyl-1H-benzoimidazol-2-yl)-1H-pyrazolo[3,4-b]pyridin-5-yl]-isoquinoline]
pIC50 [1]: 8.09
pIC50 ([2]; HeLa): 7.31
pIC50 ([3]; HCT-116, HCT-116 cells): 7.55
pIC50 [8]: 7.53
pIC50 [4]: 5.86
pIC50 [5]: 6.39
pIC50 [6]: < 5.00

c1ccc2c(-c3cnc4[nH]nc(-c5nc6c(CN7CCOCC7)cccc6[nH]5)c4c3)cncc2c1 [Cpd 9, 4-[3-(4-morpholin-4-ylmethyl-1H-benzoimidazol-2-yl)-1H-pyrazolo[3,4-b]pyridin-5-yl]-isoquinoline]
pIC50 [1]: 8.07
pIC50 ([2]; HeLa): 7.03
pIC50 ([3]; HCT-116, HCT-116 cells): 7.19
pIC50 [8]: 7.08
pIC50 [4]: ~5.00
pIC50 [5]: 6.68
pIC50 [6]: ~5.00

CCN1CCN(Cc2cccc3[nH]c(-c4n[nH]c5ncc(-c6cncc7ccccc67)cc45)nc23)CC1 [Cpd 10, 4-{3-[4-(4-ethyl-piperazin-1-ylmethyl)-1H-benzoimidazol-2-yl]-1H-pyrazolo[3,4-b]pyridin-5-yl}-isoquinoline]
pIC50 [1]: 7.80
pIC50 ([2]; HeLa): 6.90
pIC50 ([3]; HCT-116, HCT-116 cells): 6.72
pIC50 [8]: 6.93
pIC50 [4]: 5.17
pIC50 [5]: 6.79
pIC50 [6]: < 5.00

c1ccc2c(-c3cnc4[nH]nc(-c5nc6c(Cn7ccnc7)cccc6[nH]5)c4c3)cncc2c1 [Cpd 12, 4-[3-(4-imidazol-1-ylmethyl-1H-benzoimidazol-2-yl)-1H-pyrazolo[3,4-b]pyridin-5-yl]-isoquinoline]
pIC50 [1]: 7.38
pIC50 ([2]; HeLa): 5.50
pIC50 ([3]; HCT-116, HCT-116 cells): 5.72
pIC50 [8]: 5.39
pIC50 [4]: ~5.00
pIC50 [5]: ~5.00
pIC50 [6]: ~4.00

COCc1cccc2[nH]c(-c3n[nH]c4ncc(-c5cnc6ccccc6c5)cc34)nc12 [Cpd 34, 3-[3-(4-methoxymethyl-1H-benzoimidazol-2-yl)-1H-pyrazolo[3,4-b]pyridin-5-yl]-quinoline]
pIC50 [1]: 5.87
pIC50 ([2]; HeLa): 5.83
pIC50 [8]: 7.97
pIC50 [4]: < 5.00
pIC50 [5]: 6.80
pIC50 [6]: ~5.00

CCCCNCc1cncc(-c2cnc3[nH]nc(-c4nc5cc(OC)ccc5[nH]4)c3c2)c1 [Cpd 104, butyl-{5-[3-(5-methoxy-1H-benzoimidazol-2-yl)-1H-pyrazolo[3,4-b]pyridin-5-yl]-pyridin-3-ylmethyl}-amine]
pIC50 [1]: 9.10
pIC50 [2]: 7.07
pIC50 ([3]; HCT-116 cells): 7.28
pIC50 [8]: 7.40
pIC50 [4]: 6.61
pIC50 [5]: 7.75
pIC50 [7]: 5.73

COC(=O)c1cccc2[nH]c(-c3n[nH]c4ncc(-c5cncc6ccccc56)cc34)nc12 [Cpd 108, 2-(5-isoquinolin-4-yl-1H-pyrazolo[3,4-b]pyridin-3-yl)-1H-benzoimidazole-4-carboxylic acid methyl ester]
pIC50 [1]: ~5.00
pIC50 ([2]; HeLa): 4.98
pIC50 [8]: 5.13
pIC50 [4]: ~4.00
pIC50 [5]: ~4.00
pIC50 [6]: < 4.00
pIC50 [7]: < 4.00
